Values after ≈ are worked out from the molar mass of the structure shown. Values joined by “and” are separate entries in the source; they are usually repeats but may differ in a detail not shown here. Equal values may be shown once. Read-outs that look alike come from different tables or passages of the source.
Assays:
[1] = system: T. gondii tachyzoites RH strain; test: Treatment of T. gondii-infected Vero cells (MTS-PMS assay); format: cell-based, Toxoplasma gondii; conditions: for EC50: Toxoplasma gondii, read-out: EC50 against T. gondii; for Selectivity Index (SI): Vero Cell (EC50)/T. gondii EC50
Description: Vero cells were harvested by trypsinization when it reached 80–90% confluence. A volume of 100 μl diluted Vero cells of (6 x 10^4 cells/ml) in GM was cultured in triplicate wells of a 96-well plate and incubated for 24 hours. Then, 100 μl of tachyzoites (3 x 10^5 /ml) in GM2 (comprising DMEM, 0.5% PS and 2% FBS) were added into the Vero cell-seeded wells. A volume of 100 ul the above medium was added to the negative control well and the plate was incubated for six hours. Subsequently, the wells were washed twice with WM to remove non-adherent parasites. A volume of 100 μl of GM2 was added and again incubated for 18 hours. […] The negative control well contained 100 μl Vero cells and PBS in control wells for NCI compounds.
The percent cell viability was proportional to the mortality of T. gondii. The graphs were plotted and analyses their statistical data using Prism 5.0 (GraphPad Software Inc., CA USA) (S2 Dataset and S4 Dataset). […] Selectivity refers to the mean of the EC50 value for Vero cells relative to the mean of the EC50 value of the T. gondii. A P value of less than 0.05 was considered statistically significant and all data points represent the mean of three independent experiments. SI (selectivity index) measures the strength of inhibition against the Vero cells and the T. gondii.
SelectivityIndex(SI)=VeroCell(EC50)/T.gondiiEC50

[2] = system: Vero cells; test: Cytotoxicity effect on Vero cells (MTS-PMS assay); format: cell-based, African green monkey; conditions: Chlorocebus sabaeus, read-out: EC50 against Vero cells
Description: Vero cells were harvested by trypsinization when it reached 80–90% confluence. A volume of 100 μl Vero cells (6 x 10^4 cells/ml) in GM was cultured in triplicate wells of a 96-well plate and incubated for 24 hours.
MTS solution was prepared (2 mg/ml) by dissolving the powder in PBS. Exposure to light was avoided during the preparation. PMS (0.92 mg/ml) was similarly prepared in PBS and both solutions were stored at -20 °C. A volume of 20 μl of MTS solution was added into each well and the cells were incubated for one hour in a CO2 incubator [23, 24]. The absorbance (abs) was then measured at 490 nm using a microplate reader (Thermo Scientific Multiskan®Spectrum, USA). The percentage of cell viability was calculated using the following formula [25, 26]. The graphs were plotted and analyses their statistical data using Prism 5.0 (GraphPad Software Inc., CA USA) (S1 Dataset and S3 Dataset).
%ofcellviability=Opticaldensity(OD)oftreatedcell/Opticaldensity(OD)ofuntreatedcell(cellonly)

[3] = T. gondii-infected Vero cells, 24 hours treatment, MTS-PMS, molar value in brackets
[4] = T. gondii-infected Vero cells, 24 hours treatment, MTS-PMS

C1CC2CCNC3CCNC(C1)N23 (stereo not shown) [NSC81462, dodecahydro-1,4,9b-triazaphenalene]
EC50 ([1]; Vero, 24 h): 3.24 µg/mL and 17.8 µM
Selectivity Index (SI) [1]: 12.0
EC50 ([2]; 24 h): 39 µg/mL (≈ 215 µM)

NCCN1CCNCC1 [NSC38968, 2-(piperazin-1-yl)ethan-1-amine]
EC50 [1, 3]: 37 µM
EC50 [1, 4]: 4.82 µg/mL
Selectivity Index (SI) [1]: 4.5
EC50 ([2]; 24 hours treatment, MTS-PMS): 21.5 µg/mL (≈ 166 µM)

CCOC1CCc2c(C)nc(N)nc2S1 (stereo not shown) [NSC77468, 7-ethoxy-4-methyl-6,7-dihydro-5H-thiopyrano[2,3-d]pyrimidin-2-amine]
EC50 [1, 3]: 8.5 µM
EC50 [1, 4]: 1.92 µg/mL
Selectivity Index (SI) [1]: 25
EC50 ([2]; 24 hours treatment, MTS-PMS): 47.8 µg/mL (≈ 212 µM)

COc1ccccc1N1C(=O)CC(Sc2cccc(N)c2)C1=O (stereo not shown) [NSC153391, 3-[(3-aminophenyl)sulfanyl]-1-(2-methoxyphenyl)pyrrolidine-2,5-dione]
EC50 against T. gondii [1, 4]: Inactive
EC50 ([2]; 24 hours treatment, MTS-PMS): 24.7 µg/mL (≈ 75.3 µM)

Nc1ccc(C(=O)c2cccs2)cn1 [NSC343344, (6-aminopyridin-3-yl)(thiophen-2-yl)methanone]
EC50 against T. gondii [1, 4]: Inactive
EC50 ([2]; 24 h): 29.6 µg/mL (≈ 145 µM)

CC1=C(C(N)=O)S(=O)(=O)c2ccccc21 [NSC108972, 3-methyl-1,1-dioxo-1 H -1-benzothiophene-2-carboxamide]
EC50 [1, 3]: 32 µM
EC50 [1, 4]: 7.17 µg/mL
Selectivity Index (SI) [1]: 3.9
EC50 ([2]; 24 hours treatment, MTS-PMS): 28 µg/mL (≈ 126 µM)

Nc1cc(Cl)ccc1N1C(=O)CCC1=O [NSC660301, 1-(2-amino-4-chlorophenyl)pyrrolidine-2,5-dione]
EC50 [1, 3]: 15 µM
EC50 [1, 4]: 3.43 µg/mL
Selectivity Index (SI) [1]: 6.5
EC50 ([2]; 24 hours treatment, MTS-PMS): 22.3 µg/mL (≈ 99.2 µM)

O=c1[nH]cc(F)c(=O)[nH]1 [5-Fluorouracil, 5-fluorouracil, reference compound]
EC50 ([2]; 24 hours treatment, MTS-PMS): 9.72 µg/mL (≈ 74.7 µM)

NS(=O)(=O)c1ccc(Cl)cc1[N+](=O)[O-] [NSC81213, 4-chloro-2-nitrobenzene-1-sulfonamide]
EC50 [1, 3]: 20 µM
EC50 [1, 4]: 4.75 µg/mL
Selectivity Index (SI) [1]: 5.2
EC50 ([2]; 24 hours treatment, MTS-PMS): 24.6 µg/mL (≈ 104 µM)

From publication PMC7244133, “Identification of potential dual -targets anti- toxoplasma gondii compounds through structure-based virtual screening and in-vitro studies” (PLoS ONE, 2020)
